Source: US5281626A, “Benzenesulfonamide derivatives” (Eisai Co., Ltd., priority 1990, dated 1994)

How the values were obtained:
[1] = tested on: phospholipase A2 (PLA2) contained in the membrane fraction of rabbit heart; experiment: Inhibitory activity against phospholipase A2 (PLA2) contained in the membrane fraction of rabbit heart; format: biochemical; settings: CaCl2 added, 37° C., 30 minutes
Protocol: (§1) A. Inhibitory activity against phospholipase A2 (PLA2) contained in the membrane fraction of rabbit heart or the supernatant fraction thereof (method) An NZW male rabbit was anesthetized by the intravenous administration of pentobarbital sodium to take out its heart. This heart was washed with ice cooled physiological saline to recover a ventricle, followed by the addition of ice-cooled 0.25M sucrose/20 mM tris hydrochloride buffer (pH: 8.0) in an amount of 5 ml per g of the ventricle. The obtained mixture was mashed with a homogenizer in ice water for 30 minutes and centrifuged at 1,000 g for 10 min. The supernatant was further centrifuged at 105,000 g for 60 min. The centrifugation was conducted at 0° to 4° C. The obtained supernatant was used as such as the supernatant fraction for examination. The precipitate was suspended in the same buffer as that described above and used as the membrane fraction for examination. The protein concentrations of these fractions were each adjusted to 5 mg/ml as determined by Lowry method. […] The test tubes of the membrane fraction were kept at 37° C. for 30 minutes for incubation, while those of the supernatant fraction were kept at 37° C. for 5 minutes for incubation. Each incubation was stopped by the addition of 1 ml of Dole reagent. […] The amount of ^14 C was determined with a liquid scintillation counter. Mepacrine was selected as a comparative compound. (Results)

[2] = tested on: phospholipase A2 (PLA2) contained in the supernatant fraction of rabbit heart; experiment: Inhibitory activity against phospholipase A2 (PLA2) contained in the supernatant fraction of rabbit heart; format: biochemical; settings: EGTA added, 37° C., 5 minutes
Protocol: as §1

male SD rats = experiment: Toxicity test, intravenous; format: in vivo; settings: 50 mg/kg intravenously, three male SD rats per group, observed for 3 hours
Protocol: A small amount of 1N HCl was added to each of the compounds of Examples 4, 6, 7, 8 and 15 to form aqueous solutions. These solutions were each intravenously administered to the groups of three male SD rats of 7 weeks of age in a dose of 50 mg/kg. […] No rat died.

[3] = tested on: cardiac infarct size of rat; experiment: Influence on the cardiac infarct size of rat (ligation of the coronary artery); format: in vivo; settings: 1 mg/kg through the tail vein 15 minutes prior to ligation; 3 hours of ligation
Protocol: B. Influence on the cardiac infarct size of rat
Sixty-one male rats (weight : 220 to 300 g) were made to get myocardial ischemia by the ligation of the coronary artery. After 3 hours from the ligation, hearts were taken out of the rats and cut into round slices to obtain preparations. These preparations were stained with […]. The area unstained therewith was regarded as a cardiac infarction nidus and the area ratio of the nidus to the left ventricle was determined by the image analysis and regarded as the cardiac infarct size.
The cardiac infarct size was reduced as compared with that of the control rat by 21% or 20% by the administration of the compound of Example 4 or 6 through the tail vein in a dose of 1 mg/kg before 15 minutes prior to the ligation of the coronary artery.

SMILES | PLA2 -inhibitory activity IC30, membrane fraction [1] | PLA2 -inhibitory activity IC30, supernatant fraction [2] | mortality (male SD rats) | reduction of cardiac infarct size as compared with control rat [3]
CN(C(=O)/C=C/c1ccc(S(C)(=O)=O)cc1)c1ccc(S(=O)(=O)NC2CCCCN(Cc3ccccn3)C2)cc1 (racemic) [Example 8, (±)N-[1-(2-pyridylmethyl)-3-hexamethyleneimino]-4 {N methyl-N-[(E)-3-(4-methylsulfonylphenyl)-2-propenoyl]amino}benzenesulfonamide] | 0.029 µM | > 100 µM | No rat died | 
CN(C(=O)/C=C/c1ccc(S(C)(=O)=O)cc1)c1ccc(S(=O)(=O)NC2CCN(Cc3ccccc3)CC2)cc1 [Example 4, N-(1-benzyl-4-piperidyl)-4-(N-methyl [(E)-3-(4-methylsulfonylphenyl)-2-propenoyl]amino}benzenesulfonamide] | 0.032 µM | > 100 µM | No rat died | 21%
Cc1cccc(CCN(C)S(=O)(=O)c2ccc(N(C)C(=O)/C=C/c3ccc(S(C)(=O)=O)cc3)cc2)n1 [Example 6, N-methyl N-[2-(6-methyl-2-pyridyl)ethyl]-4-{N-methyl-N-[(E)-3-(4-methylsulfonylphenyl)-2-propenoyl]amino}benzenesulfonamide] | 0.056 µM | > 100 µM | No rat died | 20%
CN(C(=O)/C=C/c1ccc(S(C)(=O)=O)cc1)c1ccc(S(=O)(=O)N2CCCN(CCc3ccccc3)CC2)cc1 [Example 7, (E)-N-methyl-N-{4-[4-(2 phenylethyl)-homopiperazinyl]sulfonylphenyl}-3-(4-methylsulfonylphenyl)-2-propenamide] |  |  | No rat died | 
Cc1cccc(CCNS(=O)(=O)c2ccc(N(C)C(=O)/C=C/c3ccc(S(C)(=O)=O)cc3)cc2)n1 [Example 15, N-[2-(6-methyl-2-pyridyl)ethyl]-4-{N-methyl-N-[(E)-3-(4-methylsulfonylphenyl)-2-propenoyl]amino}benzenesulfonamide] | 0.081 µM | 61 µM | No rat died | 
CN(C(=O)/C=C/c1ccc(O)cc1)c1ccc(S(=O)(=O)NC2CCCCCC2)cc1 [Example 86, N-cycloheptyl-4-{N-methyl-N-[(E)-3-(4-hydroxyphenyl)-2-propenoyl]amino}benzenesulfonamide] | 0.62 µM | 46 µM |  | 
CCN(CC)CCCC(C)Nc1c2ccc(Cl)cc2nc2ccc(OC)cc12 (stereo not shown) [mepacrine, reference compound] | > 100 µM | > 100 µM |  | 
